Consider 2 molecules from patent publication US11318138B2, “Methods for treating B cell proliferative disorders” (priority 2013, dated 2022).

The subject of one experiment is JEKO-1 cells. The experiment is described as follows: MCL cell line culture with Ibrutinib and/or PD 0332991: viability, cell cycle, apoptosis, live cells. The experiment is classed as cell-based. The note with it: JEKO-1, Ibrutinib 72 h, Trypan blue exclusion and ToPro-3 FACS.
The test system of another experiment is MAVER-1 cells. The experiment is described as above. The class given is cell-based. The note with it: MAVER-1, Ibrutinib 72 h, Trypan blue exclusion and ToPro-3 FACS.
In another experiment the test system is MINO cells. The experiment is described as above. The experiment is classed as cell-based.
The test system of experiment [1] is PIK3IP1 mRNA in JEKO-1 cells. In words: q-RT-PCR analysis of PIK3IP1 mRNA expression in MCL cells. The class given is cell-based. As to conditions: JEKO-1, PD (30 h) alone or Ibrutinib (24 h) alone.
Experiment [2] relates to PIK3IP1 mRNA in MAVER-1 cells. The experiment is described as above. The experiment is classed as cell-based. As to conditions: MAVER-1, PD (30 h) alone or Ibrutinib (24 h) alone.
A further experiment has as its system SP53 cells. The note with it: SP53, Ibrutinib 72 h, at the G1-S transition.
The next experiment deals with MCL patient (Pt 7). As to conditions: Pt 7, Ibrutinib 560 mg daily.
In experiment [3] the test system is chicken lymphoma DL40 cell line. The note with it: model chicken lymphoma DL40 cell line; cited from earlier work.
Experiment [4] has as its system CCL3, CCL4, TNF and IL10 expression in MCL cells. As to conditions: MCL cells ex vivo; cited from earlier work.
The next experiment deals with recurrent MCL patients. As to conditions: cited from earlier work.

On to `C=CC(=O)N1CCC[C@@H](n2nc(-c3ccc(Oc4ccccc4)cc3)c3c(N)ncnc32)C1` [Ibrutinib, (R)-1-(3-(4-amino-3-(4-phenoxyphenyl)-1H-pyrazolo[3,4-d]pyrimidin-1-yl)piperidin-1-yl)prop-2-en-1-one], for which the “sensitivity of cells to ibrutinib (viability, DNA fragmentation)” value in the experiment on JEKO-1 cells and in the experiment with MAVER-1 cells was “completely refractory” each time. For the same molecule, in the experiment on MINO cells (Ibrutinib 72 h), the toxicity to cells result is on record as “not toxic”. In addition, the “S phase entry (BrdU pulsing/PI analysis)” value in the experiment on MINO cells (Ibrutinib 72 h (1 μM)) is recorded as “moderately inhibiting”. Further, the “PIK3IP1 mRNA induction, single agent” value in experiment [1] and in [2] was “modestly induced” throughout. Also, the “apoptosis (accumulation of sub 2N cells, reduction of S phase cells)” value in the experiment on SP53 cells is on record as “potently induced apoptosis”. The “duration of response before progression” value in the experiment on MCL patient (Pt 7) amounted to 14 months. Besides, the “effect of C481S BTK mutation on ibrutinib sensitivity” value in [3] is “conferred resistance”. Also, the “expression of CCL3, CCL4, TNF and IL10” value in [4] is “suppress”.
Take `CC(=O)c1c(C)c2cnc(Nc3ccc(N4CCNCC4)cn3)nc2n(C2CCCC2)c1=O` [PD 0332991]: in experiment [1], the “PIK3IP1 mRNA induction, single agent” value is given as “modestly induced”. The “PIK3IP1 mRNA induction, single agent” value in experiment [2] is given as “modestly induced”. In addition, in the experiment on recurrent MCL patients, the “cell cycle effect in patients” value was “prolonged early G1 arrest” and the clinical response entry was “durable clinical response”.
